# Experimental data from US12383710B2 (Urotronic, Inc., priority 2019, dated 2025).
# How the values were obtained:
# [1] = BPH Preclinical Study 4: tissue and plasma PK, histology
# [2] = stability under ethylene oxide sterilization, heating, and aging with paclitaxel; details: reacted with paclitaxel
SMILES,"prostate tissue drug concentration, maximum dose arm vs standard dose ([1]; 28 days) [times higher]","prostatic urethra tissue drug concentration, maximum dose arm vs standard dose ([1]; 28 days) [times higher]","prostate tissue drug concentration, maximum dose arm vs standard dose ([1]; 70 days) [times higher]","prostatic urethra tissue drug concentration, maximum dose arm vs standard dose ([1]; 70 days) [times higher]","clinical abnormalities ([1]; all animals, duration of the study)",increase of urethral luminal diameter as a result of commissurotomy ([1]; did not change between 7 days and 70 days),"histology of the prostate ([1]; maximum dose animals, 28 days, slower healing relative to standard dose and control)","abnormalities or complications ([1]; maximum dose treatment arm, 19.6 mg of paclitaxel)","plasma paclitaxel concentration ([1]; maximum dose, 12 hour and later)","nonurethral close proximity tissue sample concentrations ([1]; most samples, 28 days and beyond)","plasma paclitaxel concentration ([1]; standard dose, all time-points (1, 3, 7, 12 hours, 1, 3, 7, 14, 28 days))","stability under ethylene oxide sterilization, heating, and aging process [2]"
CC(=O)O[C@H]1C(=O)[C@@]2(C)[C@H]([C@H](OC(=O)c3ccccc3)[C@]3(O)C[C@H](OC(=O)[C@H](O)[C@@H](NC(=O)c4ccccc4)c4ccccc4)C(C)=C1C3(C)C)[C@]1(OC(C)=O)CO[C@@H]1C[C@@H]2O [paclitaxel],4.5,11,23,23,No significant clinical abnormalities,approximately 50%,ongoing healing,no abnormalities or complications,BLOQ,at or below the limit of quantification,BLOQ,–
O=C(O)c1ccccc1 [benzoic acid],–,–,–,–,–,–,–,–,–,–,–,not stable
